How the values were obtained:
rat SMC = assay: SMC proliferation, cell counts; format: cell-based
Description: (§1) Animals. Male (250-350 g) Brown Norway rats (RT1^n) were used as aortic graft donors and male (250-350 g) Lewis rats (RT11) as recipients. Dawley (400-450 g) rats were used in the balloon injury model. Adult male C57BL/6, C57/S129, p21^−/− and p53^−/− null mice were purchased from Jackson Laboratory (Bar Harbor, Me.). mkk3^(−/−) null mice were generated as described Lu et al. (EMBO. 18:1845-1857 (1999)). The inos^−/− and enos^−/− mice were bred at the University of Pittsburgh. Aortic transplant model. Aortic transplantation was performed as described in Shimizu et al. (Nat. Med. 7:738-741 (2001)). Briefly, 3 to 4 cm of descending aorta was harvested from the donor and implanted between the renal arteries and the aortic bifurcation of the recipient. Both edges of the native abdominal aorta were ligated. Balloon injury model. Balloon angioplasty was carried out as described in Murakami et al. (Atherosclerosis 157:361-368 (2001)). […] [^3H]thymidine incorporation was measured by scintillation spectroscopy and presented as mean counts/min/well. […] Areas from eight to ten captured images were calculated using digital imaging software as number of pixels corresponding to those areas. Twenty-four to forty-eight sections from each group were statistically analyzed with SPSS software version 10. […]

mouse SMC = assay: SMC proliferation, [3H]thymidine incorporation; format: cell-based; settings: for SMC proliferation / Inhibition of SMC proliferation versus air treated controls: CO 250 ppm
Description: (§2) Animals. Male (250-350 g) Brown Norway rats (RT1^n) were used as aortic graft donors and male (250-350 g) Lewis rats (RT11) as recipients. Dawley (400-450 g) rats were used in the balloon injury model. Adult male C57BL/6, C57/S129, p21^−/− and p53^−/− null mice were purchased from Jackson Laboratory (Bar Harbor, Me.). mkk3^(−/−) null mice were generated as described Lu et al. (EMBO. 18:1845-1857 (1999)). The inos^−/− and enos^−/− mice were bred at the University of Pittsburgh. Aortic transplant model. Aortic transplantation was performed as described in Shimizu et al. (Nat. Med. 7:738-741 (2001)). Briefly, 3 to 4 cm of descending aorta was harvested from the donor and implanted between the renal arteries and the aortic bifurcation of the recipient. Both edges of the native abdominal aorta were ligated. Balloon injury model. Balloon angioplasty was carried out as described in Murakami et al. (Atherosclerosis 157:361-368 (2001)). Briefly, a 2 Fr. arterial embolectomy catheter (Baxter, Chicago, Ill.) was inserted into the common carotid artery, and injury was created by inflating the balloon to 5 atmospheres of pressure for 5 minutes. The arteries were flushed and the external carotid artery was ligated, ensuring return of blood flow through the common and internal carotid arteries. Injury of the vessel wall and subsequent pathological analysis was made in a manner that was blinded to the treatment group. CO exposure. CO was delivered to animals as described in Otterbein et al. (Nat. Med. 6:422-428 (2000)). Graft donors and recipients were exposed to CO (250 ppm) for two days before transplantation and for 56 days immediately following transplantation. In the balloon injury model, rats received either no pretreatment or were exposed to CO (250 ppm) for one hour prior to injury. Following surgery rats were housed in room air for two weeks. Cells. Primary mouse and rat smooth muscle cells (SMC) were isolated and cultured as described in Laubach et al. (Proc Natl Acad Sci USA 92:10688-9 (1995)). Mouse SMC isolated from HO-1^−/− mice were obtained as described in Duckers et al. (Nat. Med. 7:693-698 (2001)). Cell treatment and reagents. Guanylate cyclase inhibitor 1H(1,2,4) oxadiazolo(4,3-a)quinoxalin-1 (ODQ; Calbiochem-Novabiochem, San Diego, Calif.; 10-100 μM) and p38 MAPK inhibitor pyridinyl imidazol SB203580 (Calbiochem; 5-20 μM) were dissolved in DMSO. The cGMP analogue 8-bromo-cGMP sodium salt (8-Br-cGMP; Sigma-Aldrich, St. Louis, Mo.; 10-100 μM) and the PKG inhibitor (10-100 μM; Alexis Biochemicals) were dissolved in water. Cell counts and [^3H] thymidine incorporation. Rat and mouse SMC were isolated and cultured as described in Peyton et al. (Blood 99:4443-4448 (2002)). Proliferation assays were carried out as described in Petkova et al. (J Biol. Chem. 276:7932-7936 (2001)). For [^3H] thymidine incorporation studies, cells were serum-starved overnight and then stimulated with 10% serum containing 5 μCi/ml [^3H] thymidine (New England Nuclear, Boston Mass.). [^3H]thymidine incorporation was measured by scintillation spectroscopy and presented as mean counts/min/well. Histomorphometric analysis. Aortic grafts and carotid arteries were harvested at 56 and 14 days respectively. Vessels were fixed, embedded, and serially sectioned (5μ) in toto. Every third slide was stained with Hematoxylin and Eosin (H&E) for histomorphometric analyses. In both models, one or two images per slide at a resolution of 1520×1080 pixels were captured at a magnification of 25× with a Zeiss microscope (Axioskop, Iowa City, Iowa), RT color SPOT (Diagnostic Instrument, Inc., Saint Joseph, Mich.) and Windows NT (Compaq Computer) using Adobe Photoshop version 5.5 software. Areas from eight to ten captured images were calculated using digital imaging software as number of pixels corresponding to those areas. Twenty-four to forty-eight sections from each group were statistically analyzed with SPSS software version 10. Immunostaining and cell population histomorphometric analysis. […]

p21Cip1 = assay: Western blot of p21Cip1 expression; format: cell-based, mouse
Description: as §2

[1] = system: intimal hyperplasia in Brown Norway aortic segments transplanted into Lewis rats; assay: Aortic transplant model, histomorphometric analysis of intimal hyperplasia; format: in vivo, rat; settings: CO 250 ppm after transplantation and for 56 days; vs air-exposed recipients; day 56; p<0.001
Description: as §1

`[C-]#[O+]` [CO, carbon monoxide] was tested, and the “Reversibility of the anti-proliferative effect” value (rat SMC; cessation of CO exposure (250 ppm) on day 6) was “reversible”, the SMC proliferation (rat SMC; exposure to CO (1000 ppm, FIG. 4B)) was “suppressed” and the SMC proliferation (mouse SMC; SMC from ho-1-/- mice) was “significantly inhibited”. The “Inhibition of SMC proliferation versus air treated controls” value (mouse SMC; SMC from nos-2-/- (iNOS) mice) was 51±25%, the “Inhibition of SMC proliferation versus air treated controls” value (mouse SMC; SMC from nos-3-/- (eNOS) mice) was 54±11% and the SMC proliferation (mouse SMC; SMC from p21Cip1 deficient mice (p21-/-)) was “not suppressed”. For the same molecule, the SMC proliferation (mouse SMC; SMC from p53-/- mice, similar extent as wild type) was “inhibited proliferation”, the “Inhibition of SMC proliferation versus air treated controls” value (mouse SMC; SMC from wild type mice) was 51±12.9% and the Cell proliferation (mouse SMC; cells from mkk3-/- mice exposed to CO) was “did not inhibit proliferation”. The “Time of maximal p21Cip1 expression after CO exposure” value (p21Cip1; CO 250 ppm, increased by 4 hours, basal at 24 hours) was 16 h, the p21Cip1 protein expression (p21Cip1; SMC exposed to CO (250 ppm)) was “up-regulated” and the “Intimal hyperplasia, reduction versus control” value [1] was 61.4±12.9%.
